In PubChem BioAssay AID1259407 (Chemical Carcinogenesis Research Information System (CCRIS), 2018):
Calls of active or inactive are those of the source. The rule behind the calls is not given here.

System: CCRIS mutagenicity, Ames/micronucleus/aberration tests
Assay: CCRIS mutagenicity studies
[1] = Test System: AMES SALMONELLA TYPHIMURIUM, Strain/Indicator: TA98, Metabolic Activation: NONE, Method: STANDARD PLATE
[2] = Test System: AMES SALMONELLA TYPHIMURIUM, Strain/Indicator: TA100, Metabolic Activation: NONE, Method: STANDARD PLATE

`Cc1ccc(C)cc1` was tested. Which mutagenic call (Test System: AMES SALMONELLA TYPHIMURIUM, Strain/Indicator: TA98, Metabolic Activation: HAMSTER, LIVER, S-9, AROCLOR 1254, Method: PREINCUBATION) did it give?
The mutagenic call was “inactive; negative”.

And the mutagenic call (Test System: AMES SALMONELLA TYPHIMURIUM, Strain/Indicator: TA98, Metabolic Activation: NONE, Method: PREINCUBATION)?
Its mutagenic call is “inactive; negative”.

What about the mutagenic call [1] of the same compound?
The mutagenic call was “inactive; negative”.

What about the mutagenic call (Test System: AMES SALMONELLA TYPHIMURIUM, Strain/Indicator: TA98, Metabolic Activation: RAT, LIVER, S-9, AROCLOR 1254, Method: PREINCUBATION) of the same compound?
Its mutagenic call is “inactive; negative”.

And the mutagenic call (Test System: AMES SALMONELLA TYPHIMURIUM, Strain/Indicator: TA98, Metabolic Activation: RAT, LIVER, S-9, AROCLOR, Method: STANDARD PLATE)?
Its mutagenic call is “inactive; negative”.

And the mutagenic call (Test System: AMES SALMONELLA TYPHIMURIUM, Strain/Indicator: TA98, Metabolic Activation: RAT, LIVER, S-9, KC 500, Method: PREINCUBATION)?
Its mutagenic call is “inactive; negative”.

What about the mutagenic call (Test System: AMES SALMONELLA TYPHIMURIUM, Strain/Indicator: TA100, Metabolic Activation: HAMSTER, LIVER, S-9, AROCLOR 1254, Method: PREINCUBATION) of the same compound?
The mutagenic call was “inactive; negative”.

What about the mutagenic call (Test System: AMES SALMONELLA TYPHIMURIUM, Strain/Indicator: TA100, Metabolic Activation: NONE, Method: PREINCUBATION) of the same compound?
The mutagenic call was “inactive; negative”.

What about the mutagenic call [2] of the same compound?
The mutagenic call was “inactive; negative”.

What about the mutagenic call (Test System: AMES SALMONELLA TYPHIMURIUM, Strain/Indicator: TA100, Metabolic Activation: RAT, LIVER, S-9, AROCLOR 1254, Method: PREINCUBATION) of the same compound?
The mutagenic call was “inactive; negative”.

And the mutagenic call (Test System: AMES SALMONELLA TYPHIMURIUM, Strain/Indicator: TA100, Metabolic Activation: RAT, LIVER, S-9, AROCLOR, Method: STANDARD PLATE)?
The mutagenic call was “inactive; negative”.

What about the mutagenic call (Test System: AMES SALMONELLA TYPHIMURIUM, Strain/Indicator: TA100, Metabolic Activation: RAT, LIVER, S-9, KC 500, Method: PREINCUBATION) of the same compound?
The mutagenic call was “inactive; negative”.

What about the mutagenic call (Test System: AMES SALMONELLA TYPHIMURIUM, Strain/Indicator: TA1535, Metabolic Activation: HAMSTER, LIVER, S-9, AROCLOR 1254, Method: PREINCUBATION) of the same compound?
The mutagenic call was “inactive; negative”.

And the mutagenic call (Test System: AMES SALMONELLA TYPHIMURIUM, Strain/Indicator: TA1535, Metabolic Activation: NONE, Method: PREINCUBATION)?
Its mutagenic call is “inactive; negative”.

And the mutagenic call (Test System: AMES SALMONELLA TYPHIMURIUM, Strain/Indicator: TA1535, Metabolic Activation: RAT, LIVER, S-9, AROCLOR 1254, Method: PREINCUBATION)?
Its mutagenic call is “inactive; negative”.

What about the mutagenic call (Test System: AMES SALMONELLA TYPHIMURIUM, Strain/Indicator: TA1535, Metabolic Activation: RAT, LIVER, S-9, KC 500, Method: PREINCUBATION) of the same compound?
Its mutagenic call is “inactive; negative”.

What about the mutagenic call (Test System: AMES SALMONELLA TYPHIMURIUM, Strain/Indicator: TA1537, Metabolic Activation: HAMSTER, LIVER, S-9, AROCLOR 1254, Method: PREINCUBATION) of the same compound?
Its mutagenic call is “inactive; negative”.

What about the mutagenic call (Test System: AMES SALMONELLA TYPHIMURIUM, Strain/Indicator: TA1537, Metabolic Activation: NONE, Method: PREINCUBATION) of the same compound?
Its mutagenic call is “inactive; negative”.

And the mutagenic call (Test System: AMES SALMONELLA TYPHIMURIUM, Strain/Indicator: TA1537, Metabolic Activation: RAT, LIVER, S-9, AROCLOR 1254, Method: PREINCUBATION)?
Its mutagenic call is “inactive; negative”.

What about the mutagenic call (Test System: AMES SALMONELLA TYPHIMURIUM, Strain/Indicator: TA1537, Metabolic Activation: RAT, LIVER, S-9, KC 500, Method: PREINCUBATION) of the same compound?
Its mutagenic call is “inactive; negative”.

What about the mutagenic call (Test System: AMES SALMONELLA TYPHIMURIUM, Strain/Indicator: TA1538, Metabolic Activation: NONE, Method: PREINCUBATION) of the same compound?
Its mutagenic call is “inactive; negative”.

What about the mutagenic call (Test System: AMES SALMONELLA TYPHIMURIUM, Strain/Indicator: TA1538, Metabolic Activation: RAT, LIVER, S-9, KC 500, Method: PREINCUBATION) of the same compound?
The mutagenic call was “inactive; negative”.

What about the mutagenic call (Test System: AMES SALMONELLA TYPHIMURIUM, Strain/Indicator: UTH8413, Metabolic Activation: NONE, Method: STANDARD PLATE) of the same compound?
Its mutagenic call is “inactive; negative”.

And the mutagenic call (Test System: AMES SALMONELLA TYPHIMURIUM, Strain/Indicator: UTH8413, Metabolic Activation: RAT, LIVER, S-9, AROCLOR, Method: STANDARD PLATE)?
The mutagenic call was “inactive; negative”.

And the mutagenic call (Test System: AMES SALMONELLA TYPHIMURIUM, Strain/Indicator: UTH8414, Metabolic Activation: NONE, Method: STANDARD PLATE)?
Its mutagenic call is “inactive; negative”.

What about the mutagenic call (Test System: AMES SALMONELLA TYPHIMURIUM, Strain/Indicator: UTH8414, Metabolic Activation: RAT, LIVER, S-9, AROCLOR, Method: STANDARD PLATE) of the same compound?
Its mutagenic call is “inactive; negative”.

What about the mutagenic call (Test System: E. COLI, Strain/Indicator: WP2 UVRA, Metabolic Activation: NONE, Method: PREINCUBATION) of the same compound?
Its mutagenic call is “inactive; negative”.

And the mutagenic call (Test System: E. COLI, Strain/Indicator: WP2 UVRA, Metabolic Activation: RAT, LIVER, S-9, KC 500, Method: PREINCUBATION)?
Its mutagenic call is “inactive; negative”.

With `COC(=O)c1ccc(CN(C)N=O)cc1` as the compound, how does the mutagenic call (Test System: AMES SALMONELLA TYPHIMURIUM, Strain/Indicator: TA1535, Metabolic Activation: HAMSTER, LIVER, S-9, AROCLOR 1254, Method: STANDARD PLATE) read?
The mutagenic call was “inactive; negative”.

What about the mutagenic call (Test System: AMES SALMONELLA TYPHIMURIUM, Strain/Indicator: TA1535, Metabolic Activation: NONE, Method: STANDARD PLATE) of the same compound?
The mutagenic call was “inactive; negative”.

Which results are given for `Oc1ccc2ccc3c4ccccc4ccc3c2c1`?
mutagenic call [1]: inactive; negative; mutagenic call [2]: inactive; negative; mutagenic call (Test System: AMES SALMONELLA TYPHIMURIUM, Strain/Indicator: TA100, Metabolic Activation: RAT, LIVER, S-9, AROCLOR 1254, Method: STANDARD PLATE): active; positive
